# Laboratory results taken from US10995052B2, “Biaromatic propynyl compounds, pharmaceutical and cosmetic compositions containing same, and uses thereof” (GALDERMA RESEARCH & DEVELOPMENT, priority 2016, dated 2021).
# Experiments:
# Test in all cases: Transactivation test in HeLa cells (luciferase reporter), apparent Kd by Schild regression
# Type in all cases: cell-based
# RAR beta = biological target: T1, RAR beta (Homo sapiens, UniProt P10826); conditions: stably transfected HeLa cells, versus reference antagonist, 18 hours incubation, read-out: RAR beta Kdapp
# T1 sequence (P10826 183-417 limits assumed): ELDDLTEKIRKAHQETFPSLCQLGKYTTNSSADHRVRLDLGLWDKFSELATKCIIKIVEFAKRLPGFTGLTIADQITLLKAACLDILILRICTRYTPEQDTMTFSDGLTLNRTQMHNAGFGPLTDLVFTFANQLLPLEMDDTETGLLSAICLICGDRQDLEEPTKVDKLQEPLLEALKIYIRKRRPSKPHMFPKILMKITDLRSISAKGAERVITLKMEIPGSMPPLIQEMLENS
# Method: (§1) Activation of receptors by an agonist (activator) in HeLa cells leads to the expression of a reporter gene, luciferase, which generates light in the presence of a substrate. Therefore the activation of receptors can be measured by quantifying the luminescence produced after incubation of the cells in the presence of a reference antagonist. The activator products displace the antagonist from its site, thus permitting the receptor to be activated. The activity is measured by quantifying the increase in light produced. This measurement determines the activating activity of the useful compound in the invention.
# (§2) In this study, a constant is determined that represents the affinity of the molecule for the receptor. This value can fluctuate according to the basal activity and expression of the receptor; it is designated apparent Kd (KdApp). […]
# (§3) Full agonist controls, also called 100% controls, (4-[2-(5,5,8,8 tetramethyl-5,6,7,8 tetrahydronaphthalene-2-yl)propenyl]-benzoic acid) and inverse agonist controls, also called 0% controls, (4-{(E)-3-[4-(4-tert-butyl-phenyl)-5,5,8,8-tetramethyl-5,6,7,8-tetrahydro-naphthalen-2-yl]-3-oxo-propenyl}-benzoic acid) are also measured.
# (§4) These cross curves allow determining the AC50 (concentration at which 50% activation of the receptor is observed) of the reference ligand at different concentrations of the product to be tested. These AC50s are used to calculate the Schild regression by plotting a line conforming to the Schild equation (“Quantitation in receptor pharmacology” Terry P. Kenakin, Receptors and Channels, 2001, 7, 371-385).
# (§5) In the case of an […], the AC50 is calculated by plotting the curve of the product at the concentration of the reference ligand giving 80% activation. The percentage of activation that corresponds to the maximum level of activity obtained is also measured. […]
# (§6) The culture medium is removed by turning over and 100 μl of a 1:1 PBS (phosphate buffer solution)/luciferin mixture is added to each well. After 5 minutes, the plates are read by the luminescence reader.
# RAR alpha = biological target: T2, RAR alpha (Homo sapiens, UniProt P10276); conditions: stably transfected HeLa cells, versus reference antagonist, 18 hours incubation, read-out: RAR alpha Kdapp
# T2 sequence (P10276 183-417 limits assumed): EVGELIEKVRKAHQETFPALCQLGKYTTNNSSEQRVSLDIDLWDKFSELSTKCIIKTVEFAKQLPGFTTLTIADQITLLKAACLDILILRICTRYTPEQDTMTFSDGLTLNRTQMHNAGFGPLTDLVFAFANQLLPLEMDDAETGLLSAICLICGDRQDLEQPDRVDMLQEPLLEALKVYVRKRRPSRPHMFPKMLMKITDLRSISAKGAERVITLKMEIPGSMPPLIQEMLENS
# Method: as §1, §2, §3, §4, §5, §6
# RAR gamma = biological target: T3, RAR gamma (Homo sapiens, UniProt P13631); conditions: stably transfected HeLa cells, versus reference antagonist, 18 hours incubation, read-out: RAR gamma Kdapp
# T3 sequence (P13631 178-423 limits assumed): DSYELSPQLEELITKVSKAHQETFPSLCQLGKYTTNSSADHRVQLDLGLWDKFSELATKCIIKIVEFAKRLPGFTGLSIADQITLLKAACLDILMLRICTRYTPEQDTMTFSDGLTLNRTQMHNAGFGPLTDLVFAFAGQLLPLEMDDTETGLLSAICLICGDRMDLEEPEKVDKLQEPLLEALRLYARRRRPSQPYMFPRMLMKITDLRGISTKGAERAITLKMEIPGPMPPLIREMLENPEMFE
# Method: as §1, §2, §3, §4, §5, §6
smiles,measurement,setting,value
"CC1(C)CCC(C)(C)c2cc(-c3cc(-c4ccc(C(=O)O)cc4)ccc3CCCO)ccc21 [Compound 1, 4′-(3-hydroxy-propyl)-3′-(5,5,8,8-tetramethyl-5,6,7,8-tetrahydro-naphthalen-2-yl)-biphenyl-4-carboxylic acid]",Kd,RAR beta,4 nM
same,Kd,RAR alpha,120 nM
same,Kd,RAR gamma,4 nM
